Experimental data reported in PubChem BioAssay AID330 (DTP/NCI, 2004).
“And” between values parts separate entries of the source, which are not always exact repeats. Equal values may be shown once. Inconclusive results and toxic doses are left out. The calls were made as follows: active = survival T/C of 150% or more; inactive = T/C below 125% in these data.

System: P388 leukemia ip, CD2F1 mice, survival T/C
Test: NCI In Vivo Anticancer Drug Screen. Data for tumor model P388 Leukemia (intraperitoneal) in CD2F1 (CDF1) mice
Conditions: endpoint: median survival time, higher = longer survival
How it was run: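 Mice carrying the transplanted tumor received test compound or vehicle. Survival was recorded in each group, and the value is the treated-group measurement divided by that of the vehicle-treated control group.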

[1] = dose: 50.0 mg/kg/injection, schedule: Q01DX005 (ip), vehicle: saline with Tween-80
[2] = dose: 100.0 mg/kg/injection, schedule: Q01DX005 (ip), vehicle: saline with Tween-80
[3] = dose: 200.0 mg/kg/injection, schedule: Q01DX005 (ip), vehicle: saline with Tween-80
[4] = dose: 50.0 mg/kg/injection, schedule: Q01DX009 (ip), vehicle: saline with Tween-80
[5] = dose: 100.0 mg/kg/injection, schedule: Q01DX009 (ip), vehicle: saline with Tween-80
[6] = dose: 200.0 mg/kg/injection, schedule: Q01DX009 (ip), vehicle: saline with Tween-80

Measured: T/C

NC(N)=O.NC(N)=O.NC(N)=O.NC(N)=O.NC(N)=O.NC(N)=O.[O-][Cl+3]([O-])([O-])O.[Ti+3]
inactive: dose: 50.0 mg/kg/injection, schedule: Q01DX009 (ip), vehicle: saline 99 % of control | dose: 100.0 mg/kg/injection, schedule: Q01DX009 (ip), vehicle: saline 92 % of control | dose: 200.0 mg/kg/injection, schedule: Q01DX009 (ip), vehicle: saline 86 % of control

CCc1cccc(C)c1NC(=O)C(=O)C(C#N)c1ccc(C)cc1 (stereo unspecified)
inactive: [1] 99 % of control | [2] 93 % of control | [3] 103 % of control

CC(C)c1cc2c(c(O)c1O)C13CCCC(C)(C)C1CC2OC3=O (stereo unspecified)
inactive: dose: 7.0 mg/kg/injection, schedule: Q01DX005 (ip), vehicle: saline with Tween-80 113 % of control | dose: 14.0 mg/kg/injection, schedule: Q01DX005 (ip), vehicle: saline with Tween-80 111 % of control | dose: 28.0 mg/kg/injection, schedule: Q01DX005 (ip), vehicle: saline with Tween-80 104 % of control

O=C1OC(C2OC(=O)C(=O)C2C(=O)c2ccc([N+](=O)[O-])cc2)C(C(=O)c2ccc([N+](=O)[O-])cc2)C1=O (stereo unspecified)
inactive: dose: 60.0 mg/kg/injection, schedule: Q01DX005 (ip), vehicle: saline with Tween-80 98 % of control | dose: 120.0 mg/kg/injection, schedule: Q01DX005 (ip), vehicle: saline with Tween-80 94 % of control

O=[n+]1c2c(n([O-])c3ccccc31)CCCCCC2
inactive: [4] 108 % of control | [5] 99 % of control | [6] 100 % of control

C=C(C)CNCCN
inactive: [1] 112 % of control | [2] 112 % of control | [3] 112 % of control

C/C=C1\CN2C3CC45c6cc(OC)c(OC)cc6N(C)C4(O3)C2CC1C5(COC(=O)c1cc(OC)c(OC)c(OC)c1)C(=O)OC (stereo unspecified)
inactive: dose: 11.5 mg/kg/injection, schedule: Q01DX005 (ip), vehicle: acid diluted with saline 98 % of control | dose: 23.0 mg/kg/injection, schedule: Q01DX005 (ip), vehicle: acid diluted with saline 100 % of control | dose: 46.0 mg/kg/injection, schedule: Q01DX005 (ip), vehicle: acid diluted with saline 110 % of control | dose: 92.0 mg/kg/injection, schedule: Q01DX005 (ip), vehicle: acid diluted with saline 100 % of control

COC(c1cc(C(O)(C(F)(F)F)C(F)(F)F)cc(C(OC)(C(F)(F)F)C(F)(F)F)c1)(C(F)(F)F)C(F)(F)F
inactive: dose: 100.0 mg/kg/injection, schedule: Q04DX003 (ip), vehicle: Klucel (hydroxypropylcellulose) (HPC) 100 % of control | dose: 200.0 mg/kg/injection, schedule: Q04DX003 (ip), vehicle: Klucel (hydroxypropylcellulose) (HPC) 100 % of control | dose: 400.0 mg/kg/injection, schedule: Q04DX003 (ip), vehicle: Klucel (hydroxypropylcellulose) (HPC) 92 % of control

NC(=S)c1cccc(C2Nc3ccccc3S2)c1 (stereo unspecified)
inactive: dose: 100.0 mg/kg/injection, schedule: Q04DX002 (ip), vehicle: saline with Tween-80 94 % of control | dose: 200.0 mg/kg/injection, schedule: Q04DX002 (ip), vehicle: saline with Tween-80 95 % of control | dose: 400.0 mg/kg/injection, schedule: Q04DX002 (ip), vehicle: saline with Tween-80 96 % of control

CN1N=C(N)c2cn(C3OC(COP(=O)(O)O)C(O)C3O)c3ncnc1c23 (stereo unspecified)
inactive: dose: 6.25 mg/kg/injection, schedule: Q01DX009 (ip), vehicle: water 124 % of control | dose: 20.0 mg/kg/injection, schedule: Q01DX005 (ip), vehicle: saline 122 % of control | dose: 38.0 mg/kg/injection, schedule: Q01DX005 (ip), vehicle: water 124 % of control

COc1ccc(S(=O)(=O)N/N=C(/C(=O)O)c2ccccc2)cc1
inactive: dose: 12.5 mg/kg/injection, schedule: Q01DX005 (ip), vehicle: saline with Tween-80 95 % of control | dose: 25.0 mg/kg/injection, schedule: Q01DX005 (ip), vehicle: saline with Tween-80 94 % of control | [1] 106 % of control | [2] 100 % of control | [3] 109 % of control and 112 % of control | dose: 400.0 mg/kg/injection, schedule: Q01DX005 (ip), vehicle: saline with Tween-80 109 % of control

CCC(O)(c1ccccc1)C(O)c1ccccc1 (stereo unspecified)
inactive: dose: 25.0 mg/kg/injection, schedule: Q01DX009 (ip), vehicle: Klucel (hydroxypropylcellulose) (HPC) 98 % of control | dose: 50.0 mg/kg/injection, schedule: Q01DX009 (ip), vehicle: Klucel (hydroxypropylcellulose) (HPC) 98 % of control | dose: 50.0 mg/kg/injection, schedule: Q01DX009 (ip), vehicle: saline + alcohol 102 % of control and 124 % of control | dose: 100.0 mg/kg/injection, schedule: Q01DX009 (ip), vehicle: Klucel (hydroxypropylcellulose) (HPC) 97 % of control | dose: 100.0 mg/kg/injection, schedule: Q01DX009 (ip), vehicle: saline + alcohol 99 % of control and 123 % of control | dose: 200.0 mg/kg/injection, schedule: Q01DX009 (ip), vehicle: Klucel (hydroxypropylcellulose) (HPC) 88 % of control | dose: 200.0 mg/kg/injection, schedule: Q01DX009 (ip), vehicle: saline + alcohol 98 % of control | dose: 400.0 mg/kg/injection, schedule: Q01DX009 (ip), vehicle: Klucel (hydroxypropylcellulose) (HPC) 96 % of control

O=C1c2c(c(Cl)c3ccccc3c2O)C(=O)C2C3C=CC(C3)C12 (stereo unspecified)
inactive: [1] 96 % of control | [2] 89 % of control | [3] 89 % of control

CC(=O)c1ccc(C)cc1C
inactive: dose: 25.0 mg/kg/injection, schedule: Q01DX009 (ip), vehicle: saline with Tween-80 98 % of control | [4] 98 % of control | [5] 104 % of control and 110 % of control | [6] 118 % of control

O=C(Nc1ccc(Cl)c(Cl)c1)n1cnc2ccccc21
inactive: dose: 6.25 mg/kg/injection, schedule: Q01DX009 (ip), vehicle: saline 105 % of control and 109 % of control | [4] 98 % of control

Cc1nnc2cc3ccccc3cn12
inactive: [1] 89 % of control | [2] 97 % of control | [3] 100 % of control

CSCCCCCCSC
inactive: dose: 50.0 mg/kg/injection, schedule: Q04DX003 (ip), vehicle: saline with Tween-80 100 % of control | dose: 100.0 mg/kg/injection, schedule: Q04DX003 (ip), vehicle: saline with Tween-80 100 % of control | dose: 200.0 mg/kg/injection, schedule: Q04DX003 (ip), vehicle: saline with Tween-80 109 % of control

CC1SC(C)(C)N(C=O)C1C(=O)O (stereo unspecified)
inactive: [4] 99 % of control and 100 % of control | [5] 101 % of control and 91 % of control | [6] 106 % of control and 94 % of control

Oc1cc(O)c(Br)c(O)c1
inactive: dose: 7.5 mg/kg/injection, schedule: Q01DX005 (ip), vehicle: saline 108 % of control | dose: 15.0 mg/kg/injection, schedule: Q01DX005 (ip), vehicle: saline 111 % of control | dose: 30.0 mg/kg/injection, schedule: Q01DX005 (ip), vehicle: saline 105 % of control

C=C1COC(=O)C12CC1CCCC(C)C1(C)C2 (stereo unspecified)
inactive: dose: 4.0 mg/kg/injection, schedule: Q01DX009 (ip), vehicle: Klucel (hydroxypropylcellulose) (HPC) 93 % of control | dose: 8.0 mg/kg/injection, schedule: Q01DX009 (ip), vehicle: Klucel (hydroxypropylcellulose) (HPC) 96 % of control | dose: 16.0 mg/kg/injection, schedule: Q01DX009 (ip), vehicle: Klucel (hydroxypropylcellulose) (HPC) 94 % of control | dose: 32.0 mg/kg/injection, schedule: Q01DX009 (ip), vehicle: Klucel (hydroxypropylcellulose) (HPC) 102 % of control

COc1ccccc1N1CCN(C(=O)CCCl)CC1
inactive: dose: 60.0 mg/kg/injection, schedule: Q01DX005 (ip), vehicle: Klucel (hydroxypropylcellulose) (HPC) 109 % of control | dose: 120.0 mg/kg/injection, schedule: Q01DX005 (ip), vehicle: Klucel (hydroxypropylcellulose) (HPC) 103 % of control | dose: 240.0 mg/kg/injection, schedule: Q01DX005 (ip), vehicle: Klucel (hydroxypropylcellulose) (HPC) 105 % of control

O=C(c1cc2c(cc1Br)OCO2)N1CCc2ccccc21
inactive: dose: 50.0 mg/kg/injection, schedule: Q01DX009 (ip), vehicle: other 93 % of control | dose: 100.0 mg/kg/injection, schedule: Q01DX009 (ip), vehicle: other 105 % of control | dose: 200.0 mg/kg/injection, schedule: Q01DX009 (ip), vehicle: other 109 % of control

CCCC(O)/C=C/C=C/C=C/C#CC#CCCCO (stereo unspecified)
inactive: dose: 0.25 mg/kg/injection, schedule: Q01DX005 (ip), vehicle: DMSO 105 % of control | dose: 1.0 mg/kg/injection, schedule: Q01DX005 (ip), vehicle: DMSO 101 % of control and 110 % of control | dose: 2.0 mg/kg/injection, schedule: Q01DX005 (ip), vehicle: DMSO 124 % of control and 96 % of control | dose: 4.0 mg/kg/injection, schedule: Q01DX005 (ip), vehicle: DMSO 104 % of control | dose: 8.0 mg/kg/injection, schedule: Q01DX005 (ip), vehicle: DMSO 105 % of control

COC1CC(C)C(OC)C2=CC(=O)C=C(NC(=O)/C(C)=C/C=C\C(C)C(OC(N)=O)/C(C)=C\C(C)C1OC)C2=O (stereo unspecified)
inactive: dose: 5.0 mg/kg/injection, schedule: Q01DX009 (ip), vehicle: saline + alcohol 121 % of control | dose: 10.0 mg/kg/injection, schedule: Q01DX009 (ip), vehicle: saline + alcohol 123 % of control | dose: 20.0 mg/kg/injection, schedule: Q01DX009 (ip), vehicle: saline + alcohol 86 % of control

CCOC(=O)c1c[nH]c2c(OC)ccc(OC)c2c1=O
inactive: [1] 99 % of control | [2] 100 % of control | [3] 100 % of control
